One test relates to BB/W diabetic rats. Nature of the test: Progression of neuropathic pain and nerve conduction deficits in BB/W model. It is filed as in vivo. From the text:
Male BB/W rats (BRI, Mass) spontaneously develop a cell mediated autoimmune destruction of pancreatic B cells, resulting in onset of insulin-dependent (Type I) diabetes (Guberski 1994). […] This renders them valuable for experimental trials of new compounds for future treatments of this major disorder. In the present study, Compound D and Compound A were examined for their ability to alter the progression of diabetic neuropathy. […] Another group of non-diabetic rats also receiving vehicle were tested. All animals were continuously monitored for body weight, urine volume, blood sugar and glycated haemoglobin. In the first month of the study, all animals were tested for thermal nociception in a Hargreaves apparatus, weekly. After the first month this was done biweekly and then monthly. The testing consists of directing an infrared heat source onto the dorsal surface of the rat hindpaw and noting the time taken for the animal to remove its paw (see Hargreaves et al., supra, for a description of the experimental method). Each animal was tested 8 times and the mean withdrawal latency noted.
Nerve conduction velocity was also measured every two weeks through the first eight weeks of treatment and every month thereafter through to the six months of treatment (see De Koning et al., Peptides, Vol. 8, No. 3, pp. 415–22 (1987) for a description of the experimental method). […] This was apparent starting at 8 weeks of treatment and persisted to a similar degree through to the six month termination point of the study.

Test [1] deals with rats with unilateral elevation of intraocular pressure. Briefly: Experimental rat glaucoma (IOP elevation, optic nerve fiber counting). The test is classed as in vivo. As to the method: (§1) All experiments complied with the Association for Research in Vision and Ophthalmology Statement for the Use of Animals in Ophthalmic and Vision Research. 82 male Brown Norway rats (Rattus norvegicus), each weighing approximately 250 gm, were treated using procedures approved by the Animal Care Committee of the Johns Hopkins University School of Medicine. The rats were housed with a 12 hour light/12 hour dark cycle and fed ad libitum.
EXPERIMENTAL GLAUCOMA: Unilateral elevation of intraocular pressure (“IOP”) was produced in 56 rats by microinjection of hypertonic saline into episcleral veins, following procedures described in Morrison, J. et al., IOVS (March 1998) 39:526–531. Beginning on the day of IOP elevation, the rats were treated daily with intraperitoneal injections of either a vehicle (23 rats with 50 mM HEPES-buffered saline) or a NAALADase inhibitor (11 rats with 10 mg/kg of Compound A and 22 rats with 10 mg/kg of Compound B). 11 saline treated rats, 11 Compound A treated rats and 11 Compound B treated rats were sacrificed at 8 weeks, and the remaining rats at 12 weeks, after initial IOP elevation.
(§2) OPTIC NERVE COUNTING: The rats were sacrificed by exsanguination under deep pentobarbital anesthesia. They were perfused through the heart with 2% paraformaldehyde/2% glutaraldehyde in 0.1 M phosphate buffer, pH 7.2, and the eyes with attached optic nerves were removed. A cross-section of the optic nerve from both experimental (glaucoma or transection) and control eyes was removed 1.5 mm posterior to the globe, 1 mm in thickness, and post-fixed in 2% osmium tetroxide in buffer. These were processed into epoxy resin, sectioned at 1 micron and stained with toluidine blue.
(§3) The area of the optic nerve cross-section was measured by outlining its outer border at 10× magnification on an image analysis system (Universal Imaging Corp., Westchester, Pa.) with Synsys digital camera and Metamorph software. Three area measurements were taken and the mean value was determined. To measure the density and fiber diameter distributions, images were captured with a 100× phase contrast objective from 10 different areas of each nerve. These were edited to eliminate non-neural objects and the size of each axon internal to the myelin sheath (its minimum diameter) and the density of axons/square mm were calculated for each image and nerve. The mean density was multiplied by total nerve area to yield fiber number for each nerve. The total fiber number in glaucoma or transection nerves was compared to the normal, fellow eye of each rat to yield a percent loss value. The number of axons counted among the 10 images was an approximately 20% sample of the 80–90,000 axons in normal rat nerves. The person measuring axon number was masked to the protocol conducted on the nerves.

Test [2] has as its system rats with unilaterally transected optic nerve. Briefly: Optic nerve transection (optic nerve fiber counting). The test is classed as in vivo, Rattus norvegicus. The following applies: for FIBER NUMBER / PERCENT DIFFERENCE (fiber number between transected eye and normal eye): 10 mg/kg i.p. daily. As to the method: as §1
OPTIC NERVE TRANSECTION: The optic nerve was transected unilaterally in 26 rats under intraperitoneal pentobarbital anesthesia. The conjunctiva was opened with scissors and the optic nerve exposed by traction on extraocular muscles. The transection was performed with microscissors 5 mm posterior to the globe, with specific attention to avoidance of injury to major ocular blood vessels. Immediately after transection, the retina was examined ophthalmoscopically to assure that the retinal arterial blood supply was not disrupted. The conjunctiva was closed with absorbable suture and the eye dressed with antibiotic ointment. Beginning on the day of transection, the rats were treated daily with intraperitoneal injections of either a vehicle (9 rats with 50 mM HEPES-buffered saline) or a NAALADase inhibitor (8 rats with 10 mg/kg of Compound A and 9 rats with 10 mg/kg of Compound B). 5 saline treated rats, 3 Compound A treated rats and 4 Compound B treated rats were sacrificed at 2 weeks, and the remaining rats at 4 weeks, after transection.
as §2, §3

In a further test the test system is STZ-diabetic rats. Nature of the test: Diabetic neuropathy in STZ model (motor and sensory nerve conduction velocity). The test is classed as in vivo. The method, then:
Motor and sensory nerve conduction velocity was also measured in STZ-diabetic animals after 4, 8 and 12 weeks of treatment (see De Koning et al., supra, for a description of the experimental method). Briefly, stimulating needle electrodes were inserted close to the sciatic and tibial nerves with recording electrodes being placed subcutaneously over the distal foot muscles, in anesthetized rats.

The test system of the next test is transgenic G1H mice. Nature of the test: Effect of NAALADase inhibitors on onset of ALS (FALS transgenic mice). The test is classed as in vivo. As to the method:
The effect of NAALADase inhibitors on the onset of ALS was tested using the transgenic mice model of familial amyotrophic lateral sclerosis (FALS), which is detailed in Gurney, M., Annals of Neurology (1996) 39:147–157, and otherwise well known in the art. One month old transgenic G1H mice were treated with daily intraperitoneal injections of a vehicle (50 mM HEPES-buffered saline) or a NAALADase inhibitor (50 mg/kg Compound A). Clinical symptoms of the mice were monitored daily. The onset of clinical disease was scored by examining each mouse for its shaking of limbs when suspended in the air by its tail, cross spread of spinal reflexes, hindlimb paralysis, body weight and wheel running activity.

Test [3] has as its system STZ-induced diabetic rats. Briefly: Neuropathic pain in STZ model (Hargreaves thermal nociception). It is filed as in vivo, Sprague-Dawley rats. The following applies: 10 mg/kg i.p. daily, treatment started 45 days post-STZ. As to the method: Male Sprague-Dawley rats (200–225 g) were rendered diabetic by intravenous administration of streptozotocin (“STZ”, 70 mg/kg in phosphate buffered saline). Diabetic animals were divided into five groups: one group receiving Compound A (10 mg/kg or 1 mg/kg), Compound D (10 mg/kg or 1 mg/kg) or vehicle. Another group of animals (non-STZ treated) served as non-diabetic controls. Drug/vehicle treatment was started in diabetic animals 45 days post-STZ administration. STZ-induced diabetic rats were tested for sensitivity to a heat source as soon as blood glucose levels rose to 320 mg/dl or above (30 days post STZ). The rats were then acclimated to a Hargreaves apparatus and thermal nociception was monitored using an infrared heat source directed into the dorsal surface of the hindpaw, and the time taken for the animal to remove its paw noted to the nearest 0.1 seconds (see Hargreaves et al., supra, for detailed experimental method). The intensity of the beam source was adjusted such that the mean latency for control animals (non-STZ treated) was approximately 10 seconds. Each animal was tested 8 times and the mean difference score (between mean non-diabetic control latency and mean diabetic latency) are graphically presented in FIGS. 7A and 7B.

The test system of test [4] is chronic constrictive injury-induced rats. Briefly: Neuropathic pain in CCI model (sciatic nerve ligation, thermal hyperalgesia). It is filed as in vivo. To be noted: 50 mg/kg i.p. daily starting 10 days post surgery. As to the method:
Sciatic nerve ligation, consisting of 4 ligatures tied loosely around the sciatic nerve at 1 mm intervals proximal to the nerve trifurcation, was performed on rats. […] The rats were habituated to a Hargreaves apparatus. An infrared heat source was directed onto the dorsal surface of each rat's hindpaws and the time taken for the rat to withdraw its paws was noted. The difference in scores between the latency of the response for the paw on the operated side versus the paw on the unoperated control side was determined.
The rats were treated with either Compound 49 (10, 1 or 0.1 mg/kg) or a vehicle for 15 days after sciatic nerve ligation. Thermal pain responses were measured at days 0, 1, 5, 8, 11 and 15. The differences in scores for the rats treated with a vehicle and the rats treated with Compound 49 are graphically presented in FIGS. 13-15.
The rats were treated with either Compound 5 (50, 30, 10, 3, 1 or 0.3 mg/kg) or a vehicle for 12 (or 15) days after sciatic nerve ligation. Thermal pain responses were measured at days 0, 1, 5, 8 and 12 (and 15). The differences in scores for the rats treated with a vehicle and the rats treated with Compound 5 are graphically presented in FIGS. 17-22.
The rats received either Compound C (50 mg/kg i.p. daily) or a vehicle starting 10 days post surgery. […] Normal (unoperated) rats had approximately equal latencies for both paws. This effect was significant starting at 11 days of drug treatment and persisted through to the end of the study (for 21 days of daily dosing).

For test [5], the system named is TGF-β1. Nature of the test: Effect of NAALADase inhibition on TGF-β1 in in vitro ischemia model. It is filed as cell-based. To be noted: ischemic cell cultures, FIG. 1. As to the method: (§4) A NAALADase inhibitor, Compound C, was added to ischemia cell cultures to determine its effect on TGF-β levels during stroke.
Another test deals with ischemic cell cultures. Nature of the test: Neuroprotective effect in in vitro ischemia model with growth factor neutralizing antibodies. It is filed as cell-based. The method, then:
TGF-β neutralizing antibodies were then added to the ischemic cell cultures.

In test [6] the test system is TGF-β1. Briefly: TGF-β1 levels in MCAO rats assessed by microdialysis. It is filed as in vivo. To be noted: during both occlusion and reperfusion, FIG. 6.
Test [7] has as its system rats subjected to middle cerebral artery occlusion. Briefly: Neuroprotective effect in MCAO rats with TGF-β neutralizing antibodies. It is filed as in vivo. To be noted: FIG. 5. An excerpt: The effect of TGF-β neutralizing antibodies on the neuroprotective effect of Compound C was also studied in rats following MCAO.
One of ordinary skill in the art can appreciate that the regulation of TGF-β's by NAALADase inhibitors may have implications not only in stroke, but also in other diseases, disorders and conditions including, without limitation, neurological diseases, psychiatric diseases, demyelinating diseases, prostate cancer, inflammation, diabetes and angiogenesis.

The subject of the next test is TGF-β2. Nature of the test: Effect of NAALADase inhibition on TGF-β2 in in vitro ischemia model. The following applies: ischemic cell cultures, FIG. 2. It is filed as cell-based. As to the method:
as §4

For a further test, the target named is T1, NAALADase (Homo sapiens, UniProt Q04609).
T1 construct: 100 μL tissue; from tissue; host or cells: unspecified tissue
To be noted: NAAG as substrate; cited from earlier work.

These results are taken from patent US6992215B2, “Thiol-based NAALADase inhibitors” (Guildford Pharmaceuticals Inc., priority 2001, dated 2006).

“And” between values parts separate entries of the source, which are not always exact repeats. Equal values may be shown once. Peptide text beside a SMILES is read from it.

T1 sequence (Q04609 whole entry): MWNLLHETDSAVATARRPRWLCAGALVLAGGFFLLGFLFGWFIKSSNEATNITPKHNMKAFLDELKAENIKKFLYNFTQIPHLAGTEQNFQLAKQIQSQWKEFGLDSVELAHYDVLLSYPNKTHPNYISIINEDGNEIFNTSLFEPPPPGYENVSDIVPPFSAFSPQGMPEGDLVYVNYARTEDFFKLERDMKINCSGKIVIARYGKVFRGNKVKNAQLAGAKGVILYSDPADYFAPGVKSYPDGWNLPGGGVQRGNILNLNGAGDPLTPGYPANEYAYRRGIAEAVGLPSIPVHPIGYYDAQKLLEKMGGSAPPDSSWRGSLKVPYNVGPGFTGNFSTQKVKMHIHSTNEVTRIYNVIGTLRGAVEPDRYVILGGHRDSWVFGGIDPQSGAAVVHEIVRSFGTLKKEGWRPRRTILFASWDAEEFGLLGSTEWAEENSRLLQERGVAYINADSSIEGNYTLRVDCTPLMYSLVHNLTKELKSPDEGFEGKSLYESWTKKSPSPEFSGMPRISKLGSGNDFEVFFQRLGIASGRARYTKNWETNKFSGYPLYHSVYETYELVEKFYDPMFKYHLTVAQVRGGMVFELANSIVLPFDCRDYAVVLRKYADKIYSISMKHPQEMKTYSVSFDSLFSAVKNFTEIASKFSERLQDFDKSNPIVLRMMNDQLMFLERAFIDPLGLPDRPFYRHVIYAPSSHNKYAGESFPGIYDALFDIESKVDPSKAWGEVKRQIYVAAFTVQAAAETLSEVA

Consider `O=C(O)CCC(CP(=O)(O)Cc1c(F)c(F)c(F)c(F)c1F)C(=O)O` (stereo not shown) [Compound A], for which the “nerve conduction velocity deficits versus diabetic vehicle controls” value in the test on BB/W diabetic rats (10 mg/kg daily, from 8 weeks to six months of treatment, FIG. 12) is on record as “significantly less severe nerve conduction deficits”. Also, the “withdrawal latency versus diabetic vehicle-treated rats” value in the test with BB/W diabetic rats (10 mg/kg i.p. daily, starting after 4 weeks and through six months of treatment, FIG. 11) was “longer withdrawal latencies”. For the same molecule, the “FIBER NUMBER” value is on record as 79156 ± 2436 in [1] (8 week group, 10 mg/kg i.p. daily); 26,426 ± 23,025 in [2] (2 weeks survival); 13,599 ± 7,868 in test [2] (4 weeks survival). Also, the “PERCENT DIFFERENCE (fiber number between glaucoma and normal eye)” value in test [1] (8 week group, 10 mg/kg i.p. daily, positive value indicates fewer fibers in the glaucoma eye) was −1.82 ± 2.92%. The “mean percent fiber loss versus saline-treated control groups” value in test [1] (at 8 weeks, p=0.05 for Compound A and p=0.02 for Compound B) was “statistically less”. Besides, the “remaining axons relative to the saline-treated rats” value in [2] (2 weeks after transection) turned out to be 3 times. Moreover, the figures for the “PERCENT DIFFERENCE (fiber number between transected eye and normal eye)” value in [2] (2 weeks survival) and in test [2] (4 weeks survival) were 65.3 ± 30.9% and 82.4 ± 8.9%, respectively. Moreover, in the test on STZ-diabetic rats (10 mg/kg daily for 4, 8 and 12 weeks, FIGS. 9A and 9B), the “motor and sensory nerve conduction velocities” value was “tended to improve (increase)”. Also, the “treatment time after which improvement of motor nerve conduction velocity was significant” value in the test with STZ-diabetic rats (10 mg/kg daily, FIG. 9A) is 12 weeks. Besides, the “treatment time after which improvement of sensory nerve conduction velocity was significant” value in the test with STZ-diabetic rats (10 mg/kg daily, FIG. 9B) worked out at 8 weeks. Further, the “DIFFERENCE (disease onset, Compound A treated versus vehicle treated mice)” value with transgenic G1H mice (50 mg/kg daily intraperitoneal injections) was 32 and 25. Also, the “DISEASE ONSET FOR COMPOUND A TREATED MICE” value in the test on transgenic G1H mice (50 mg/kg daily intraperitoneal injections from one month of age) was 221 days and 166 days. Also, the “hyperalgesic response (withdrawal latency difference score)” value in test [3] is “completely reversed”.

Turning to `O=C(O)CCC(CP(=O)(O)O)C(=O)O` (stereo not shown) [Compound C, 2-(phosphonomethyl)pentanedioic acid], the “time of drug treatment from which the effect was significant” value in [4] was 11 days. Moreover, the “difference scores between the two paws” value in test [4] (FIG. 8) is given as “dramatically normalized”. For the same molecule, the TGF-β1 concentrations result in the test on TGF-β1 [5] is “increased concentrations”. In the test on ischemic cell cultures (FIG. 3), the “neuroprotective effect in the presence of TGF-β neutralizing antibodies” value is “blocked”. In addition, the “neuroprotective effect in the presence of FGF antibody” value with ischemic cell cultures (FIG. 4) was “did not block”. For the same molecule, in the test on TGF-β1 [6], the TGF-β1 levels result is recorded as “significant rise”. The “neuroprotective effect in vivo in the presence of TGF-β neutralizing antibodies” value in test [7] is listed as “significantly attenuated”. Further, the TGF-β2 concentrations entry with TGF-β2 is “increased concentrations”.

On to `CC(=O)N[C@@H](CC(=O)O)C(=O)N[C@@H](CCC(=O)O)C(=O)O` [NAAG, N-acetyl-aspartyl-glutamate] (Ac-Asp-Glu-OH), for which the Km at NAALADase is 0.54 µM.
